Values quoted from earlier work as cited in patent US8609722B2, “Anesthetic composition for topical administration comprising lidocaine, prilocaine and tetracaine” (priority 2003, dated 2013).
Counter-ions that a name gives are not always drawn.

Assays:
[1] = tested on: erythrocyte heme protein; settings: the very young may be more susceptible

Question: For `CCCNC(C)C(=O)Nc1ccccc1C` (centres unmarked) [prilocaine hydrochloride], which “dose above which symptoms of methemoglobinaemia usually occur” value [1] is on record?
Answer: exceed 8 mg per kg body-weight

Question: What about the solubility in water of the same molecule?
Answer: readily soluble in water
